Laboratory results as given in patent publication US20100152301A1, “Treatment of Viral Infections” (GOVERNMENT OF THE US, AS REPRESENTED BY THE SECRETARY, …, priority 2005, published 2010).

Each compound was assayed against T1, HIV-1 integrase (Human immunodeficiency virus type 1 group M subtype B, UniProt P04585) (assay: Disintegration assay with Y-oligomer substrate). Conditions: In vitro IC50 Disintegration, Mg2+.
T1 construct: Expression and purification of the recombinant HIV-1 integrase in Escherichia coli; made in house; host or cells: Escherichia coli
Type: biochemical
Procedure: (§1) Recombinant HIV integrase and oligonucleotide substrates. Expression and purification of the recombinant HIV-1 integrase in Escherichia coli were performed according to (Leh et al., 2000; Marchand et al., 2001) with addition of 10% glycerol to all buffers. The preparation of the Q148C/SSS-mutant integrase will be described elsewhere (Johnson et al., 2005). The oligonucleotide substrates, except those used for the disulfide crosslinking (FIG. 5A), were purchased from Integrated DNA Technologies, Inc. (Coraville, Iowa) and purified by polyacrylamide gel. The single-stranded oligonucleotides were 5′-end labeled with [γ^32P]-ATP (Perkin Elmer, Wellesley, M A) and T4 polynucleotide kinase (New England BioLabs, Ipswich, M A). Unincorporated nucleotide was removed using mini Quick Spin Oligo columns (Roche Diagnostics, Indianapolis, Ind.). Substrates were obtained after annealing with complementary non-labeled oligonucleotides. The thiol-modified substrate (FIG. 5A) for disulfide crosslinking assay was synthesized as essentially described by W. Santos and G. Verdine (Department of Chemistry and Chemical Biology, Harvard University, Cambridge, Mass.) (They and Verdine, 2002).
(§2) Integrase catalytic assays. Reactions were performed in 10 μl with 300 nM of recombinant IN, 20 nM of the 5′-end [^32P]-labeled oligonucleotide substrates and inhibitors at the indicated concentrations. 10% DMSO was included in controls. Reactions were incubated for 40 min at 37° C. in a buffer containing a final concentration of 25 mM MOPS, pH 7.2, 25 mM NaCl, 14.3 mM β-mercaptoethanol and 7.5 mM of divalent cations (MgCl2 or MnCl2 as indicated). Reactions were stopped by addition of 20 μl loading dye (10 mM EDTA, 98% deionized formamide, 0.025% xylene cyanol and 0.025% bromophenol blue). Reactions were heated at 95° C. for 1 min before electrophoresis in 20% polyacrylamide-7 M urea gels. Gels were dried and reaction products were visualized and quantitated with a Molecular Dynamics PhosphorImager (Sunnyvale, Calif.). Densitometric analyses were performed using ImageQuant from the Molecular Dynamics software. The concentrations at which enzyme activity was reduced by 50% (IC50), was determined using “Prism” software (GraphPad Software, San Diego, Calif.) for nonlinear regression to fit dose-response data to logistic curve models.

SMILES | IC50 [µM]
CC(C)=CCc1ccc(=O)c(O)cc1C(C)C [NSC 43339, nootkatin] | > 333
O=c1cccccc1O [NSC 89303, tropolone] | > 333
C=C(C)C1CCc2c(c(C)cc(O)c(=O)c2O)C1 (centres unmarked) [NSC 310618, manicol] | > 333

Same assay, conditions: In vitro IC50 Disintegration, Mn2+

SMILES | IC50 [µM]
CC(C)=CCc1ccc(=O)c(O)cc1C(C)C [NSC 43339, nootkatin] | > 333
O=c1cccccc1O [NSC 89303, tropolone] | > 333
C=C(C)C1CCc2c(c(C)cc(O)c(=O)c2O)C1 (centres unmarked) [NSC 310618, manicol] | 98.3

Same assay, conditions: Mn2+; drug concentration of 333 μM

SMILES | inhibition activity, disintegration
CC(C)=CCc1ccc(=O)c(O)cc1C(C)C [NSC 43339, nootkatin] | 1 (inhibition activity ≦ 5%)
O=c1cccccc1O [NSC 89303, tropolone] | 1 (inhibition activity ≦ 5%)

Same assay, conditions: read-out: inhibition activity, disintegration

SMILES | inhibition at 333 µM [%]
CC(C)=CCc1ccc(=O)c(O)cc1C(C)C [NSC 43339, nootkatin] | < 5
O=c1cccccc1O [NSC 89303, tropolone] | < 5
C=C(C)C1CCc2c(c(C)cc(O)c(=O)c2O)C1 (centres unmarked) [NSC 310618, manicol] | 5 to 20

These compounds were tested against T1, HIV-1 integrase (assay: Strand transfer assay with preprocessed (19/21) DNA substrate). Conditions: In vitro IC50 Preprocessed substrate, Mg2+.
Type: biochemical
Procedure: as §1, §2

SMILES | IC50 [µM]
CC(C)=CCc1ccc(=O)c(O)cc1C(C)C [NSC 43339, nootkatin] | > 333
O=c1cccccc1O [NSC 89303, tropolone] | > 333
C=C(C)C1CCc2c(c(C)cc(O)c(=O)c2O)C1 (centres unmarked) [NSC 310618, manicol] | > 333

Same assay, conditions: In vitro IC50 Preprocessed substrate, Mn2+

SMILES | IC50 [µM]
CC(C)=CCc1ccc(=O)c(O)cc1C(C)C [NSC 43339, nootkatin] | > 333
O=c1cccccc1O [NSC 89303, tropolone] | > 333
C=C(C)C1CCc2c(c(C)cc(O)c(=O)c2O)C1 (centres unmarked) [NSC 310618, manicol] | 25.8

Same assay, conditions: read-out: inhibition activity, preprocessed substrate, Mg2+; drug concentration of 333 μM

SMILES | inhibition at 333 µM [%]
CC(C)=CCc1ccc(=O)c(O)cc1C(C)C [NSC 43339, nootkatin] | 5 to 20
O=c1cccccc1O [NSC 89303, tropolone] | 5 to 20
C=C(C)C1CCc2c(c(C)cc(O)c(=O)c2O)C1 (centres unmarked) [NSC 310618, manicol] | 20 to 40

Same assay, conditions: read-out: inhibition activity, preprocessed substrate, Mn2+; drug concentration of 333 μM

SMILES | inhibition at 333 µM [%]
CC(C)=CCc1ccc(=O)c(O)cc1C(C)C [NSC 43339, nootkatin] | 20 to 40
O=c1cccccc1O [NSC 89303, tropolone] | 5 to 20

Each compound was assayed against T1, HIV-1 integrase (assay: Integrase catalytic assay, 3′-processing (3′-P), 21 bp duplex substrate). Conditions: In vitro IC50 21 bp substrate 3′-P, Mg2+.
Type: biochemical
Procedure: as §1, §2

SMILES | IC50 [µM]
CC(C)=CCc1ccc(=O)c(O)cc1C(C)C [NSC 43339, nootkatin] | > 333
O=c1cccccc1O [NSC 89303, tropolone] | > 333
C=C(C)C1CCc2c(c(C)cc(O)c(=O)c2O)C1 (centres unmarked) [NSC 310618, manicol] | 182 ± 42.5

Same assay, conditions: In vitro IC50 21 bp substrate 3′-P, Mn2+

SMILES | IC50 [µM]
CC(C)=CCc1ccc(=O)c(O)cc1C(C)C [NSC 43339, nootkatin] | > 333
O=c1cccccc1O [NSC 89303, tropolone] | > 333
C=C(C)C1CCc2c(c(C)cc(O)c(=O)c2O)C1 (centres unmarked) [NSC 310618, manicol] | 20.2

Same assay, conditions: read-out: inhibition activity, 3′-P, 21 bp substrate, Mg2+; drug concentration of 333 μM

SMILES | inhibition at 333 µM [%]
CC(C)=CCc1ccc(=O)c(O)cc1C(C)C [NSC 43339, nootkatin] | 5 to 20
O=c1cccccc1O [NSC 89303, tropolone] | < 5

Same assay, conditions: read-out: inhibition activity, 3′-P, 21 bp substrate, Mn2+; drug concentration of 333 μM

SMILES | inhibition at 333 µM [%]
CC(C)=CCc1ccc(=O)c(O)cc1C(C)C [NSC 43339, nootkatin] | 5 to 20
O=c1cccccc1O [NSC 89303, tropolone] | 5 to 20

What follows are compounds tested against T1, HIV-1 integrase (assay: Integrase catalytic assay, strand transfer (ST), 21 bp duplex substrate). Conditions: IC50, inhibition of HIV-1 integrase (first screen), Mn2+ as cofactor, U5 LTR DNA substrate; 3′-P or ST not specified.
Type: biochemical
Procedure: as §1, §2

SMILES | IC50 [µM]
O=c1cccccc1O [NSC 89303, tropolone] | > 333

Same assay, conditions: In vitro IC50 21 bp substrate ST, Mg2+

SMILES | IC50 [µM]
CC(C)=CCc1ccc(=O)c(O)cc1C(C)C [NSC 43339, nootkatin] | > 333
O=c1cccccc1O [NSC 89303, tropolone] | > 333
C=C(C)C1CCc2c(c(C)cc(O)c(=O)c2O)C1 (centres unmarked) [NSC 310618, manicol] | 71.1 ± 3.8

Same assay, conditions: In vitro IC50 21 bp substrate ST, Mn2+

SMILES | IC50 [µM]
CC(C)=CCc1ccc(=O)c(O)cc1C(C)C [NSC 43339, nootkatin] | > 333
O=c1cccccc1O [NSC 89303, tropolone] | > 333
C=C(C)C1CCc2c(c(C)cc(O)c(=O)c2O)C1 (centres unmarked) [NSC 310618, manicol] | 11.7 ± 5.2

Same assay, conditions: Mn2+ as cofactor, U5 LTR DNA substrate

SMILES | potency against HIV-1 integrase relative to the minimal tropolone core
CC(C)=CCc1ccc(=O)c(O)cc1C(C)C [NSC 43339, nootkatin] | failed to increase potency

Same assay, conditions: Mn2+; drug concentration of 333 μM

SMILES | inhibition activity, ST, 21 bp substrate
CC(C)=CCc1ccc(=O)c(O)cc1C(C)C [NSC 43339, nootkatin] | 3 (20% < inhibition activity < 40% at drug concentration of 333 μM)
O=c1cccccc1O [NSC 89303, tropolone] | 3 (20% < inhibition activity < 40% at drug concentration of 333 μM)

Same assay, conditions: read-out: inhibition activity, ST, 21 bp substrate

SMILES | inhibition at 333 µM [%]
CC(C)=CCc1ccc(=O)c(O)cc1C(C)C [NSC 43339, nootkatin] | 20 to 40
O=c1cccccc1O [NSC 89303, tropolone] | 20 to 40
